Source: the supplement of paper PMC8967900

What was measured:
Test in all cases: selective drug sensitivity score (sDSS, relative to normal bone marrow) (sDSS (score)); higher = more potent and effective on the cell line relative to normal bone marrow cells
Conditions in all cases: 72 h
LC4-1 = tested on: LC4-1
P12-ICHIKAWA = tested on: P12-ICHIKAWA
697 = tested on: 697
SEM cells = tested on: SEM cells
ALL-PO = tested on: ALL-PO
RPMI-8402 = tested on: RPMI-8402
MN-60 = tested on: MN-60
CCRF-CEM = tested on: CCRF-CEM
MOLT-4 = tested on: MOLT-4
NALL-1 = tested on: NALL-1
ALL-SIL = tested on: ALL-SIL
MHH-CALL-2 = tested on: MHH-CALL-2
PEER = tested on: PEER
TMD5 = tested on: TMD5
KARPAS-45 = tested on: KARPAS-45
KOPN-8 = tested on: KOPN-8
MOLT-14 = tested on: MOLT-14
COG-LL-394h = tested on: COG-LL-394h
MHH-CALL-4 = tested on: MHH-CALL-4
MOLT-16 = tested on: MOLT-16
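Note: ALL cell lines in 384-well plates, five doses spanning 10,000-fold, each plate scaled between vehicle and 100 µmol/L benzalkonium chloride controls, sDSS an adapted area-under-curve metric.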

| Compound | selective drug sensitivity score (LC4-1) | selective drug sensitivity score (P12-ICHIKAWA) | selective drug sensitivity score 697 | selective drug sensitivity score (SEM cells) | selective drug sensitivity score (ALL-PO) | selective drug sensitivity score (RPMI-8402) | selective drug sensitivity score (MN-60) | selective drug sensitivity score (CCRF-CEM) | selective drug sensitivity score (MOLT-4) | selective drug sensitivity score (NALL-1) | selective drug sensitivity score (ALL-SIL) | selective drug sensitivity score (MHH-CALL-2) | selective drug sensitivity score (PEER) | selective drug sensitivity score (TMD5) | selective drug sensitivity score (KARPAS-45) | selective drug sensitivity score (KOPN-8) | selective drug sensitivity score (MOLT-14) | selective drug sensitivity score (COG-LL-394h) | selective drug sensitivity score (MHH-CALL-4) | selective drug sensitivity score (MOLT-16) |
| --- | --- | --- | --- | --- | --- | --- | --- | --- | --- | --- | --- | --- | --- | --- | --- | --- | --- | --- | --- | --- |
| CCCCCOC(=O)Nc1nc(=O)n([C@@H]2O[C@H](C)[C@@H](O)[C@H]2O)cc1F [Capecitabine] (top concentration 10000 nM) | -0.06 | -0.06 | -0.06 | 0.04 | -0.06 | -0.06 | -0.06 | -0.06 | -0.06 | -0.06 | -0.06 | 1.04 | -0.06 | -0.06 | -0.06 | -0.06 | -0.06 | -0.06 | 0.04 | -0.06 |
| Nc1nc(Cl)nc2c1ncn2[C@H]1C[C@H](O)[C@@H](CO)O1 [Cladribine] (top concentration 1000 nM) | 6.26 | -5.24 | 10.5 | 3.96 | 8.66 | -4.74 | -6.44 | 5.16 | -7.74 | 1.86 | 9.36 | 4.66 | -12.2 | -16 | -15.7 | 9.66 | 5.66 | -16 | 4.06 | 1.06 |
| CCN(CC)CCOc1ccc(/C(=C(/Cl)c2ccccc2)c2ccccc2)cc1 [Clomifene] (top concentration 10000 nM) | 4.62 | 0.32 | 0.92 | 2.32 | 0.62 | 0.32 | -0.18 | -0.08 | -1.08 | 1.22 | 0.12 | 4.12 | 1.02 | 1.32 | 1.22 | 8.92 | -0.28 | -0.08 | 2.72 | 0.92 |
| CO[C@@H](C(=O)N1Cc2[nH]nc(NC(=O)c3ccc(N4CCN(C)CC4)cc3)c2C1)c1ccccc1 [Danusertib] (top concentration 10000 nM) | 19.9 | 21.7 | 21.4 | 19.2 | 13 | 6.54 | -0.36 | 18.5 | 14.5 | 13.5 | 22.8 | 11.7 | 21.6 | 14.5 | 8.94 | 19 | 15.5 | 2.64 | 7.14 | 22.4 |
| CC[C@@](C)(Nc1ccnc(-c2c[nH]c3ncccc23)n1)C(=O)NCC(F)(F)F [Decernotinib] (top concentration 10000 nM) | -3.94 | -3.94 | -1.54 | -2.74 | -3.94 | -3.44 | -3.94 | -3.94 | -3.94 | -3.94 | -2.44 | -3.94 | -3.84 | -1.74 | -3.94 | -3.94 | -3.94 | -3.94 | -3.94 | -3.94 |
| CN1CCN(c2ccc3nc(-c4c(N)c5c(F)cccc5[nH]c4=O)[nH]c3c2)CC1 [Dovitinib] (top concentration 10000 nM) | 0.06 | -0.14 | 1.56 | 10.1 | 6.86 | -0.14 | -0.14 | 0.26 | -0.14 | -0.14 | -0.14 | -0.14 | 0.66 | -0.14 | 0.26 | -0.14 | 0.46 | 1.36 | -0.14 | -0.14 |
| CC(C)(O)CNc1nc(Nc2ccnc(C(F)(F)F)c2)nc(-c2cccc(C(F)(F)F)n2)n1 [Enasidenib] (top concentration 10000 nM) | 3.9 | 0.2 | -0.2 | 2.3 | 2.7 | 0.4 | -0.8 | -0.1 | -0.8 | -0.8 | 1.8 | -0.4 | 0.6 | -0.8 | 4.1 | 1.2 | -0.8 | 1.7 | -0.8 | 0.1 |
| CN1CCN(c2ccc(C(=O)Nc3n[nH]c4ccc(Cc5cc(F)cc(F)c5)cc34)c(NC3CCOCC3)c2)CC1 [Entrectinib] (top concentration 1000 nM) | -1.2 | -1.2 | -1.2 | 3.5 | 3.3 | -1.2 | -1.2 | -1.2 | -1.2 | -0.3 | -0.6 | -0.8 | 0.9 | -0.5 | -0.9 | 0.1 | -0.7 | 0.2 | 0.4 | -1.2 |
| CNC(=O)c1ccc(N2C(=S)N(c3ccc(C#N)c(C(F)(F)F)c3)C(=O)C2(C)C)cc1F [Enzalutamide] (top concentration 10000 nM) | 0.28 | -0.42 | 1.48 | -0.82 | 0.88 | 0.48 | -0.22 | -0.52 | -0.82 | -0.82 | -0.82 | -0.12 | 0.48 | -0.82 | -0.82 | 5.18 | -0.02 | -0.32 | -0.72 | 1.48 |
| Cn1cc(C2=C(c3cn(C4CCN(Cc5ccccn5)CC4)c4ccccc34)C(=O)NC2=O)c2ccccc21 [Enzastaurin] (top concentration 10000 nM) | 3.26 | 4.66 | 5.76 | 6.76 | 5.96 | 5.86 | 5.16 | 5.06 | 6.26 | -0.34 | 3.96 | 0.66 | 6.66 | 0.06 | 4.86 | 2.46 | 6.06 | 6.86 | -0.04 | 4.66 |
| NS(=O)(=O)NCCNc1nonc1/C(=N/O)Nc1ccc(F)c(Br)c1 [Epacadostat] (top concentration 10000 nM) | -0.26 | -0.26 | -0.26 | 8.34 | -0.26 | 0.54 | 1.44 | -0.26 | -0.16 | 3.74 | -0.26 | 1.64 | 0.14 | 4.44 | -0.26 | 2.44 | -0.26 | -0.26 | 4.24 | -0.06 |
| CCOc1ccccc1-n1c(C(C)N2CCN(C(=O)COc3ccc(Cl)cc3)CC2)nc2ccccc2c1=O (stereo not given) [Erastin] (top concentration 10000 nM) | 16 | 7.94 | 20.1 | 6.34 | 4.54 | -5.96 | -6.86 | 9.34 | -2.26 | 6.64 | 6.94 | 6.34 | 7.94 | 7.04 | 8.24 | 18.8 | 8.54 | -0.76 | 6.44 | 23 |
| COc1cc(OC)cc(N(CCNC(C)C)c2ccc3ncc(-c4cnn(C)c4)nc3c2)c1 [Erdafitinib] (top concentration 1000 nM) | -0.56 | -0.56 | -0.06 | 0.24 | -0.46 | -0.56 | -0.56 | -0.56 | -0.56 | 5.34 | 2.74 | 8.24 | -0.36 | 4.74 | -0.06 | -0.56 | -0.56 | -0.56 | -0.46 | -0.56 |
| CC(C)(C)NC(=O)[C@H]1CC[C@H]2[C@@H]3CC[C@H]4NC(=O)C=C[C@]4(C)[C@H]3CC[C@]12C [Finasteride] (top concentration 10000 nM) | 2.08 | -0.52 | -0.52 | 1.48 | 0.48 | -0.52 | -0.52 | -0.52 | -0.52 | 3.48 | 1.78 | 0.98 | -0.52 | 0.58 | -0.52 | 8.18 | -0.52 | -0.52 | 1.88 | -0.52 |
| O=c1[nH]c(=O)n([C@H]2C[C@H](O)[C@@H](CO)O2)cc1F [Floxuridine] (top concentration 10000 nM) | 36.2 | 30.4 | 35.8 | 31.5 | 36.5 | 26 | 10.3 | 31.1 | 26.6 | 21 | 18.3 | 24.2 | 14.2 | -1.98 | -1.38 | 37.3 | 27.1 | 3.62 | 22.6 | 32.8 |
| CNc1nc(Nc2cn(C(C)(C)C#N)nc2C)ncc1C(F)(F)F [GNE-0877] (top concentration 1000 nM) | 0 | 0 | 0 | 0 | 0 | 0 | 0 | 0 | 0 | 0 | 0 | 0 | 0 | 0 | 0 | 0 | 0 | 0 | 0 | 0 |
| CCCc1cc(C)[nH]c(=O)c1CNC(=O)c1cc(-c2ccnc(N3CCN(C)CC3)c2)cc2c1cnn2C(C)C [GSK343] (top concentration 1000 nM) | 0 | 0 | 0 | 0 | 0.1 | 0 | 0 | 0 | 0 | 0 | 0 | 0 | 0 | 0 | 0 | 0 | 2 | 0.1 | 0 | 0 |
| O=C(O)c1ccc(O)c2ncccc12 [IOX-1] (top concentration 100000 nM) | 3.24 | 4.34 | 5.64 | 1.84 | 3.74 | 2.64 | 4.54 | 3.74 | 3.34 | 2.24 | 6.24 | 3.64 | 4.34 | 0.64 | 4.04 | 2.84 | 5.64 | -1.56 | 2.24 | 3.74 |
